Article PMC10786919, “Design-rules for stapled peptides with in vivo activity and their application to Mdm2/X antagonists” (Nature Communications, 2024)
Converted amounts (≈) assume the structure as drawn. Positions of bridges follow the written chain, without caps; N, C: chain ends. Non-standard residues stand in square brackets, D forms with d. Residues, ends and D or L forms follow the SMILES beside them. Phe(3-CF3) = N[C@@H](Cc1cccc(C(F)(F)F)c1)C(=O)O; Lys(N3) = [N-]=[N+]=NCCCC[C@H](N)C(=O)O; R8 = C=CCCCCCC[C@@](C)(N)C(=O)O; Cba = N[C@@H](CC1CCC1)C(=O)O; S5 = C=CCCC[C@](C)(N)C(=O)O; βAla = NCCC(=O)O

Key:
[1] = Lactate dehydrogenase (LDH) release assay; format: cell-based; conditions: LDH: Cytotoxicity assay: EC50
Method in brief: (§1)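 A p53 β-lactamase reporter HCT116 line, 8000 cells per well, is exposed to test compounds at 0.5% final DMSO and scored for LDH leakage.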

[2] = test system: HCT116 cells; experiment: Lactate dehydrogenase (LDH) release assay; format: cell-based
Method in brief: as §1

[3] = physchem
[4] = Solubility assay (kinetic solubility, PBS pH 7); format: physicochemical; conditions: pH 7, PBS; for solubility kinetic: pH 7, aqueous buffer, kinetic from dmso stock, read-out: Solubility
Method in brief: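 Std: 10 mM stock → 100 µM in ACN/MeOH/DMSO (10:80:10). Sol. [µM] = (sample peak area / std peak area) × std conc.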

[5] = in vitro; conditions: Nanoclick permeability assay EC50
Method in brief: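 Azido-peptide permeability was read as loss of NanoBRET signal (donor 450 nm, acceptor 610 nm) after adding NanoBret618-azide at 10 μM final.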

[6] = Experimental LogD (partition coefficient); conditions: for logD: not stated, Partition Coeff LogD

| Compound | EC50 [1] [nM] | LDH: Cytotoxicity assay: % Effect [2] [%] | EPSA [3] [A^2] | solubility kinetic [4] [µM] | cell entry EC50 [5] [nM] | logD [6] | Solubility [4] | Partition Coeff LogD [6] |
| --- | --- | --- | --- | --- | --- | --- | --- | --- |
| CC(=O)N[C@@H](CCCCN=[N+]=[N-])C(=O)NCCC(=O)N1CCC[C@H]1C(=O)N[C@H](C(=O)N[C@@H](Cc1ccccc1)C(=O)N[C@]1(C)CCCCCCC=CCCC[C@@](C)(C(=O)N[C@@H](CO)C(=O)N[C@@H](C)C(=O)N[C@@H](C)C(N)=O)NC(=O)[C@H](CC2CCC2)NC(=O)[C@H](CCC(N)=O)NC(=O)[C@H](C)NC(=O)[C@H](Cc2c[nH]c3ccccc23)NC(=O)[C@H](Cc2ccc(O)cc2)NC(=O)[C@H](CCC(=O)O)NC1=O)[C@@H](C)O [MP-259] (Ac-[Lys(N3)][βAla]PTF[R8]EYWAQ[Cba][S5]SAA-NH2; staple 6-13) | > 50600 | 7.47 | 221 | 90.5 (≈ 177 µg/mL) | 290 | 2.67 |  |  |
| CC(=O)N[C@@H](CCCCN=[N+]=[N-])C(=O)NCCC(=O)NCC(=O)N[C@H](C(=O)N[C@@H](Cc1ccccc1)C(=O)N[C@]1(C)CCCCCCC=CCCC[C@@](C)(C(=O)N[C@@H](CO)C(=O)N[C@@H](C)C(=O)N[C@@H](C)C(N)=O)NC(=O)[C@H](CC2CCC2)NC(=O)[C@H](CCC(N)=O)NC(=O)CNC(=O)[C@H](Cc2c[nH]c3ccccc23)NC(=O)[C@H](Cc2ccc(O)cc2)NC(=O)CNC1=O)[C@@H](C)O [MP-692] (Ac-[Lys(N3)][βAla]GTF[R8]GYWGQ[Cba][S5]SAA-NH2; staple 6-13) | > 50600 | 2.18 | 200 | 2 (≈ 3.66 µg/mL) | 1390 | 2.73 |  |  |
| CC(=O)N[C@@H](CCCCN=[N+]=[N-])C(=O)N[C@@H](CO)C(=O)NCC(=O)N[C@@H](CO)C(=O)N[C@@H](CC(C)C)C(=O)N[C@H](C(=O)N[C@@H](Cc1ccccc1)C(=O)N[C@]1(C)CCCCCCC=CCCC[C@@](C)(C(=O)N[C@@H](CO)C(=O)N[C@@H](C)C(=O)N[C@@H](C)C(N)=O)NC(=O)[C@H](CC2CCC2)NC(=O)[C@H](CCC(N)=O)NC(=O)[C@H](C)NC(=O)[C@H](Cc2c[nH]c3ccccc23)NC(=O)[C@H](Cc2ccc(O)cc2)NC(=O)[C@H](CCC(=O)O)NC1=O)[C@@H](C)O [MP-619] | > 50600 | 11.42 | 227 | 110 (≈ 235 µg/mL) | 630 | 2.67 |  |  |
| CC(C)C[C@@H]1NC(=O)[C@H](C)NC(=O)[C@H](Cc2c[nH]c3ccccc23)NC(=O)[C@H](Cc2ccc(O)cc2)NC(=O)[C@H](CCC(=O)O)NC(=O)[C@](C)(NC(=O)[C@H](Cc2ccccc2)NC(=O)[C@H](CO)NC(=O)[C@@H](NC(=O)[C@H](CO)NC(=O)[C@@H](N)CCCCN=[N+]=[N-])[C@@H](C)O)CCCCCCC=CCCC[C@@](C)(C(N)=O)NC(=O)[C@H](CC(C)C)NC1=O [MP-0178] | > 50600 | 0.79 | 235 |  | 1310 | 2.59 | Poorly Behaved |  |
| CC(=O)N[C@@H](CCCCN=[N+]=[N-])C(=O)NCCC(=O)N[C@@H](CC(C)C)C(=O)N[C@H](C(=O)N[C@@H](Cc1ccccc1)C(=O)N[C@]1(C)CCCCCCC=CCCC[C@@](C)(C(=O)N[C@@H](CO)C(=O)N[C@@H](C)C(=O)N[C@@H](C)C(N)=O)NC(=O)[C@H](CC2CCC2)NC(=O)[C@H](CCC(N)=O)NC(=O)[C@H](C)NC(=O)[C@H](Cc2cccc(C(F)(F)F)c2)NC(=O)[C@H](Cc2ccc(O)cc2)NC(=O)[C@H](CCC(=O)O)NC1=O)[C@@H](C)O [MP-030] (Ac-[Lys(N3)][βAla]LTF[R8]EY[Phe(3-CF3)]AQ[Cba][S5]SAA-NH2; staple 6-13) | > 50600 | 8.06 | 192 |  | 408 |  | Poorly Behaved | Poorly Behaved |
| CC(=O)N[C@@H](CCCCN=[N+]=[N-])C(=O)NCCC(=O)N[C@@H](CO)C(=O)N[C@H](C(=O)N[C@@H](Cc1ccccc1)C(=O)N[C@]1(C)CCCCCCC=CCCC[C@@](C)(C(=O)N[C@@H](CO)C(=O)N[C@@H](CO)C(=O)N[C@@H](CO)C(N)=O)NC(=O)[C@H](CC2CCC2)NC(=O)[C@H](CCC(N)=O)NC(=O)[C@H](CO)NC(=O)[C@H](Cc2c[nH]c3ccccc23)NC(=O)[C@H](Cc2ccc(O)cc2)NC(=O)[C@H](CO)NC1=O)[C@@H](C)O [MP-667] (Ac-[Lys(N3)][βAla]STF[R8]SYWSQ[Cba][S5]SSS-NH2; staple 6-13) | > 50600 | 2.286 | 208 | 2 (≈ 3.9 µg/mL) | 2230 | 2.5 |  |  |
